Results published in patent US10626095B2, “Cyanotriazole compounds” (OTSUKA PHARMACEUTICAL CO., LTD., priority 2013, dated 2020).

Experiments:
[1] = tested on: Zucker Diabetic Fatty (ZDF) rat; experiment: Meal load test in type 2 diabetic model rats (postprandial blood glucose); format: in vivo; set-up: unit not given here; conditions: ZDF rats fasted overnight, oral 10 mg/kg in 5% Arabia gum, blood glucose one hour after meal loading (50 kcal/kg)
Procedure: Effects on Type 2 Diabetes: Meal Load Test
To evaluate whether a cyanotriazol compound improves diabetes or not, especially related to postprandial blood glucose, meal load test was performed using one of type 2 diabetic model rats, the Zucker Diabetic Fatty (ZDF) rat (Charles river, Japan). About 24 animals fasted overnight (17 h) were taken blood samples from the tail veins, and measured blood glucose levels (Pre BG) and body weights (BW). Proper animals were selected and divided into […] (n=6) based on the Pre BG and BW using SAS Statistical Analysis System (SAS institute Japan Ltd. Release 9.1). The compounds to be tested (10 or 30 mg/kg body weight in 5% Arabia gum) or Arabia gum solution only (vehicle group) were orally administrated via gavage two hours prior to or just before meal loading (50 kcal/kg body weight). The meal suspension was prepared by mixing purified AIN-93G (Norsan Corp, Yokohama, Japan) and distilled water (2:3, w/v). One-hour after meal loading, blood glucose (BG1h) of each animal was measured. Effectiveness of each compound was shown by ? BG1h (BG1h difference between compound group and vehicle group). Although a set of 24 animals was used several times (from 13 weeks to 21 weeks of age), at least a one-week interval was placed from one to another test.

[2] = tested on: NaCT-CHO (CHO cells stably expressing human NaCT); experiment: Assay of the citric acid cycle activation ([1,5-14C]-citric acid, diffusion of [14C]-CO2); format: cell-based; conditions: 1 hour incubation at 37° C. with [1,5-14C]-citric acid
How it was run: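 NaCT-CHO cells (pME-CHO empty-vector cells for non-specific counts) were incubated 1 h at 37 °C in Na+-containing HEPES-Tris pH 7.4 with compound plus an equal volume of 0.4 mM [1,5-14C]-citric acid solution. Residual cell radioactivity was counted, [14C]-CO2 diffusion was taken as (Total−R)/(Total−NS)×100%, and EC50 was derived by regression.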

Structure (SMILES)	BG1h (BG1h difference between compound group and vehicle group) [1]	EC50 [2]
N#Cc1[nH]nnc1-c1cc(N2CCCC2)nc(-c2ccccc2)n1 [Example 1676, 5-(2-phenyl-6-(pyrrolidin-1-yl)-pyrimidin-4-yl)-3H-[1,2,3]triazole-4-carbonitrile]	−49.5	2.22 µM
N#Cc1[nH]nnc1-c1cc(/C=C/c2cccc(C(F)(F)F)n2)cc(C(F)(F)F)c1 [Example 51, 5-{3-trifluoromethyl-5-[(E)-2-(6-trifluoromethyl-pyridin-2-yl)-vinyl]-phenyl}-3H-[1,2,3]triazole-4-carbonitrile]	−79.0	0.76 µM
N#Cc1[nH]nnc1-c1cc(OCc2cc(C(F)(F)F)ccc2C(F)(F)F)cc(OC(F)(F)F)c1 [Example 504, 5-[3-(2,5-bis-trifluoromethyl-benzyloxy)-5-trifluoromethoxy-phenyl]-3H-[1,2,3]triazole-4-carbonitrile]	−69.1	1.47 µM
COc1cc(-c2cc(C(F)(F)F)ccn2)cc(-c2nn[nH]c2C#N)c1 [Example 15, 5-[3-methoxy-5-(4-trifluoromethyl-pyridin-2-yl)-phenyl]-3H-[1,2,3]triazole-4-carbonitrile]	−50.5	0.49 µM
N#Cc1[nH]nnc1-c1csc(-c2ccc(Cl)c(Cl)c2)n1 [Example 77, 5-[2-(3,4-dichloro-phenyl)-thiazol-4-yl]-3H-[1,2,3]triazole-4-carbonitrile]	−61.3	0.91 µM
N#Cc1[nH]nnc1-c1cc(Cl)cc(-c2nccc(C(F)(F)F)n2)c1 [Example 23, 5-[3-chloro-5-(4-trifluoromethyl-pyrimidin-2-yl)-phenyl]-3H-[1,2,3]triazole-4-carbonitrile]	−137.0	0.45 µM
CCc1sc(-c2ccc(Cl)cc2)nc1-c1nn[nH]c1C#N [Example 98, 5-[2-(4-chloro-phenyl)-5-ethyl-thiazol-4-yl]-3H-[1,2,3]triazole-4-carbonitrile]	−87.9	0.59 µM
N#Cc1[nH]nnc1-c1cc(Cl)cc(/C=C/c2cccc(C(F)(F)F)c2)c1 [Example 47, 5-{3-chloro-5-[(E)-2-(3-trifluoromethyl-phenyl)-vinyl]-phenyl}-3H-[1,2,3]triazole-4-carbonitrile]	−89.7	1.07 µM
N#Cc1[nH]nnc1-c1cc(Cl)cc(/C=C/c2ccc(F)cc2)c1 [Example 623, 5-{3-chloro-5-[(E)-2-(4-fluoro-phenyl)-vinyl]-phenyl}-3H-[1,2,3]triazole-4-carbonitrile]	−111.2	0.69 µM
N#Cc1[nH]nnc1-c1cccc(-c2nccc(C(F)(F)F)n2)c1 [Example 21, 5-[3-(4-trifluoromethyl-pyrimidin-2-yl)-phenyl]-3H-[1,2,3]triazole-4-carbonitrile]	−95.7	0.77 µM
N#Cc1[nH]nnc1-c1cc(/C=C/c2ccc(F)cc2)cc(OC(F)(F)F)c1 [Example 639, 5-{3-[(E)-2-(4-fluoro-phenyl)-vinyl]-5-trifluoromethoxy-phenyl}-3H-[1,2,3]triazole-4-carbonitrile]	−58.5	1.21 µM
CCc1sc(-c2ccc(C(F)(F)F)cn2)nc1-c1nn[nH]c1C#N [Example 100]	−100.5	0.54 µM
N#Cc1[nH]nnc1-c1cccc(/C=C/c2ccc3c(c2)OC(F)(F)O3)c1 [Example 1017, 5-{3-[(E)-2-(2,2-difluoro-benzo[1,3]dioxol-5-yl)-vinyl]-phenyl}-3H-[1,2,3]triazole-4-carbonitrile]	−124.6	1 µM
N#Cc1[nH]nnc1-c1cccc(/C=C/c2cc3ccccc3s2)c1 [Example 1004, 5-[3-((E)-2-benzo[b]thiophen-2-yl-vinyl)-phenyl]-3H-[1,2,3]triazole-4-carbonitrile]	−89.8	1.8 µM
N#Cc1[nH]nnc1-c1ccc(/C=C/c2ccc(F)cc2)o1 [Example 1505, 5-{5-[(E)-2-(4-fluoro-phenyl)-vinyl]-furan-2-yl}-3H-[1,2,3]triazole-4-carbonitrile]	−123.5	0.42 µM
N#Cc1[nH]nnc1-c1cccc(/C=C/c2nccc(C(F)(F)F)n2)c1 [Example 52, 5-{3-[(E)-2-(4-trifluoromethyl-pyrimidin-2-yl)-vinyl]-phenyl}-3H-[1,2,3]triazole-4-carbonitrile]	−120.4	0.58 µM
N#Cc1[nH]nnc1-c1cc(-c2cccc(C(F)(F)F)n2)cc(C(F)(F)F)c1 [Example 14, 5-[3-trifluoromethyl-5-(6-trifluoromethyl-pyridin-2-yl)-phenyl]-3H-[1,2,3]triazole-4-carbonitrile]	−79.2	0.5 µM
N#Cc1[nH]nnc1-c1cccc(/C=C/c2cc(C(F)(F)F)ccn2)c1 [Example 50, 5-{3-[(E)-2-(4-trifluoromethyl-pyridin-2-yl)-vinyl]-phenyl}-3H-[1,2,3]triazole-4-carbonitrile]	−120.0	0.44 µM
N#Cc1[nH]nnc1-c1cccc(/C=C/c2cccc(C(F)(F)F)c2)c1 [Example 613, 5-{3-[(E)-2-(3-trifluoromethyl-phenyl)-vinyl]-phenyl}-3H-[1,2,3]triazole-4-carbonitrile]	−138.8	0.43 µM
CCOc1cc(-c2nccc(C(F)(F)F)n2)cc(-c2nn[nH]c2C#N)c1 [Example 944, 5-[3-ethoxy-5-(4-trifluoromethyl-pyrimidin-2-yl)-phenyl]-38-[1,2,3]triazole-4-carbonitrile]	−125.1	1.01 µM
N#Cc1[nH]nnc1-c1ccc(-c2nccc(C(F)(F)F)n2)cc1 [Example 70, 5-[4-(4-trifluoromethyl-pyrimidin-2-yl)-phenyl]-3H-[1,2,3]triazole-4-carbonitrile]	−137.2	0.51 µM
N#Cc1[nH]nnc1-c1nc(-c2cccc(C(F)(F)F)c2)oc1C1CC1 [Example 120, 5-[5-cyclopropyl-2-(3-trifluoromethyl-phenyl)-oxazol-4-yl]-3H-[1,2,3]triazole-4-carbonitrile]	−114.3	0.89 µM
N#Cc1[nH]nnc1-c1cccc(-c2cc(C(F)(F)F)ccn2)c1 [Example 790, 5-[3-(4-trifluoromethyl-pyridin-2-yl)-phenyl]-3H-[1,2,3]triazole-4-carbonitrile]	−61.5	0.98 µM
N#Cc1[nH]nnc1-c1cccc(COc2cc(C(F)(F)F)ccn2)c1 [Example 55, 5-[3-(4-trifluoromethyl-pyridin-2-yloxymethyl)-phenyl]-3H-[1,2,3]triazole-4-carbonitrile]	−110.2	0.65 µM
N#Cc1[nH]nnc1-c1cccc(OCc2cc(C(F)(F)F)ccc2C(F)(F)F)c1 [Example 60, 5-[3-(2,5-bis-trifluoromethyl-benzyloxy)-phenyl]-3H-[1,2,3]triazole-4-carbonitrile]	−132.0	0.3 µM
CC(C)c1oc(-c2ccc(Cl)cc2)nc1-c1nn[nH]c1C#N [Example 122, 5-[2-(4-chloro-phenyl)-5-isopropyl-oxazol-4-yl]-3H-[1,2,3]triazole-4-carbonitrile]	−75.5	0.51 µM
N#Cc1[nH]nnc1-c1csc(-c2cccc(OC(F)(F)F)c2)n1 [Example 79, 5-[2-(3-trifluoromethoxy-phenyl)-thiazol-4-yl]-3H-[1,2,3]triazole-4-carbonitrile]	−51.0	0.62 µM
N#Cc1[nH]nnc1-c1csc(-c2cccc(C(F)(F)F)c2)n1 [Example 78, 5-[2-(3-trifluoromethyl-phenyl)-thiazol-4-yl]-3H-[1,2,3]triazole-4-carbonitrile]	−93.7	0.51 µM
N#Cc1[nH]nnc1-c1cc(OC(F)(F)F)cc(-c2ccc(OC(F)(F)F)c(F)c2)c1 [Example 298, 5-(3′-fluoro-5,4′-bis-trifluoromethoxy-biphenyl-3-yl)-3H-[1,2,3]triazole-4-carbonitrile]	−62.8	0.74 µM
N#Cc1[nH]nnc1-c1nc(-c2cccc(C(F)(F)F)c2)sc1Cl [Example 108, 5-[5-chloro-2-(3-trifluoromethyl-phenyl-phenyl)-thiazol-4-yl]-3H-[1,2,3]triazole-4-carbonitrile]	−101.9	0.42 µM
